2 compounds from article PMC2099433, “The binding site for neohesperidin dihydrochalcone at the human sweet taste receptor” (BMC Structural Biology, 2007) can be followed below.

In assay [1] the target is T1, hTAS1R2 + hTAS1R3 H721A^ex2 (Homo sapiens, UniProt Q7RTX0+Q8TE23, H721A).
T1 construct: expressed in transfected cells; host or cells: HEK293T cells stably expressing G16Gust44
T1 sequence (Q8TE23 20-839): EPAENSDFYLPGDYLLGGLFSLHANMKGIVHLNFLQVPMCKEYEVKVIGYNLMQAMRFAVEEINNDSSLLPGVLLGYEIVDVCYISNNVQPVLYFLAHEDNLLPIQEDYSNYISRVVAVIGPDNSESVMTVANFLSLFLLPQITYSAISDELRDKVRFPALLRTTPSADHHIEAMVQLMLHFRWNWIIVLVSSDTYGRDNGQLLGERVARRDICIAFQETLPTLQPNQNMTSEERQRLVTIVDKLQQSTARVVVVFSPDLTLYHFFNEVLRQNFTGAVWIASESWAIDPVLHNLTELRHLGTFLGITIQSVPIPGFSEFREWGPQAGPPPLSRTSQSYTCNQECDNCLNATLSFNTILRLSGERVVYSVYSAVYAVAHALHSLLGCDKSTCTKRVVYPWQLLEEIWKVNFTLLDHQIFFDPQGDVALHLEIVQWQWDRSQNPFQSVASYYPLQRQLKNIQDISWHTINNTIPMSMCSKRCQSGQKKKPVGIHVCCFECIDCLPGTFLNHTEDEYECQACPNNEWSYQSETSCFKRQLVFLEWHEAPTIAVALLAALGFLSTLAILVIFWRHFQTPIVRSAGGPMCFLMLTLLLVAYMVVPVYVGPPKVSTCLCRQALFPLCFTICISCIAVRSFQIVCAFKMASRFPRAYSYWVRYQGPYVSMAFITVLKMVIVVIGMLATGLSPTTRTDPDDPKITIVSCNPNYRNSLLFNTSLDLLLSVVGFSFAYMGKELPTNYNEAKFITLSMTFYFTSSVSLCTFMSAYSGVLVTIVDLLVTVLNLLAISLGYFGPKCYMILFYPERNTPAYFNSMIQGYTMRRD
T1 sequence (Q7RTX0 21-852 H721A): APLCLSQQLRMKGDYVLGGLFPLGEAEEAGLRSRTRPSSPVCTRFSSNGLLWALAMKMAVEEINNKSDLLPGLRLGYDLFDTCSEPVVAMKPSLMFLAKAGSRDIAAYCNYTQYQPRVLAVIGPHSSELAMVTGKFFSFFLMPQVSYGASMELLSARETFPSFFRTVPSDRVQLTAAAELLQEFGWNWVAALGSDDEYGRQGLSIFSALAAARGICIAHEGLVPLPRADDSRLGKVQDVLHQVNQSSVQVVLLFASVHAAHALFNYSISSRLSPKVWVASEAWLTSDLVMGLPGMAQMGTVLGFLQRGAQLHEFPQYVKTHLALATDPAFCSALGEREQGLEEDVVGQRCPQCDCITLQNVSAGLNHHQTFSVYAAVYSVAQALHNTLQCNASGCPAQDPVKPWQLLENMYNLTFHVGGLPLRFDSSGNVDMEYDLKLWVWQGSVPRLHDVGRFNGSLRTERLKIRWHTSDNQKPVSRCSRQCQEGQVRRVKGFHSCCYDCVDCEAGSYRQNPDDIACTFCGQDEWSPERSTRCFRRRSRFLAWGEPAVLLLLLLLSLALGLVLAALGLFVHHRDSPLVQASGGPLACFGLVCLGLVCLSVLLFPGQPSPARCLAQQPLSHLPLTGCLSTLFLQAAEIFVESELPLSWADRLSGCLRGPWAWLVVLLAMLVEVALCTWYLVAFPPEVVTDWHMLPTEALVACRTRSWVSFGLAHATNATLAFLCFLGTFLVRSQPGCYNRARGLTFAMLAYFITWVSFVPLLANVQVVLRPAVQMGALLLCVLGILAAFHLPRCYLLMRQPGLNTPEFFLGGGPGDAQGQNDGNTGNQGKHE
The assay is described as follows: Calcium response (FLIPR), hTAS1R3 mutant coexpressed with hTAS1R2. The settings on record: variant H721A^ex2; for Emax: read-out: maximal signal (% of wt). In kind it is cell-based. The method, boiled down: (§1)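 Read-out: FLIPR calcium signal as ΔF/F = (F-F0)/F0, corrected for mock-transfected cells. Cells were HEK293T stably carrying G16Gust44, transiently transfected with HSV-tagged receptor cDNAs and dye-loaded with Fluo4-AM 24 h post transfection.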

For assay [2], the target named is T2, hTAS1R2 + hTAS1R3 Q636A^3.28 (Homo sapiens, UniProt Q7RTX0+Q8TE23, Q636A).
T2 construct: expressed in transfected cells; host or cells: HEK293T cells stably expressing G16Gust44
T2 sequence (Q8TE23 20-839): T1 sequence (Q8TE23 20-839)
T2 sequence (Q7RTX0 21-852 Q636A): T1 sequence (Q7RTX0 21-852 H721A) with Q616A, A701H
The assay is described as above. The settings on record: variant Q636A^3.28; for Emax: read-out: maximal signal (% of wt). It is filed as cell-based. In short, it runs like this: as §1

Where a chain is given by its changes, count along the chain named. Where a SMILES comes first, the peptide text is derived from it.

Take `COc1ccc(CCC(=O)c2c(O)cc(O[C@@H]3O[C@H](CO)[C@@H](O)[C@H](O)[C@H]3O[C@@H]3O[C@@H](C)[C@H](O)[C@@H](O)[C@H]3O)cc2O)cc1O` [NHDC, neohesperidin dihydrochalcone]: the values for the EC50 in assay [1] and in assay [2] were 800 ± 300 µM and 300 ± 200 µM, respectively. Further, the Emax was 66 ± 10% in assay [1] and 61 ± 29% in assay [2].

`COC(=O)[C@H](Cc1ccccc1)NC(=O)[C@@H](N)CC(=O)O` [aspartame] (HELM PEPTIDE1{D.F.[CO[*:1]]}$$$$V2.0): in assay [1], the concentration for a half-maximal effect (EC50) worked out at 1600 ± 300 µM and the Emax is 60 ± 40%. Moreover, in assay [2], the EC50 was found to be 1100 ± 100 µM and the Emax was 70 ± 18%.

Usually EC50 stands for the concentration needed to bring the measured effect to its halfway point.
